Ends that are not written are not given here. * marks the point of attachment. FITC = O=C1OC2(c3ccc(O)cc3Oc3cc(O)ccc32)c2ccc(NC(=S)*)cc21
Assays:
HUVEC cells [1] = assay: cellular uptake by fluorescence microscopy; type: cell-based, human; details: FITC-labeled peptide
Method: 4′,6-Diamidino-2-phenylindole (DAPI) was used to stain nuclei of all cells. Cell fluorescence was imaged on a Nikon Eclipse TE2000-U microscope. FITC and DAPI were excited using 490-nm and 360-nm filters, respectively. The emission signals were sorted out using 514 and 460 filters for the FITC and DAPI, respectively. HUVEC cells were treated with 10 μM of parstatin (1-41)-FITC for different time intervals. […] FITC signal was detected as early as 5 min of cell exposure to parstatin (1-41)-FITC (FIG. 9C).

HUVEC cells [2] = assay: cellular uptake of FITC-labeled peptides by flow cytometry; type: cell-based, human; details: 30 min exposure
Method: HUVEC cells in the exponential growth phase were exposed to various concentrations of parstatin (1-41)-FITC in serum-free medium containing 0.5% BSA. After incubation times ranging from 1 min to 60 min, cells were washed extensively. Washed cells were incubated for 10 min with trypsin at 37° C. to remove the cell surface-bound parstatin. Suspended cells were subsequently centrifuged, washed, and analyzed on FACS flow cytometer (EPICS XL-MCL; Coulter).
The uptake of a given parstatin (1-41)-FITC into cells was assessed by the change of the FITC-positive cell population compared with untreated control cell samples.

HUVEC cells [3] = assay: Matrigel capillary tube-like formation; type: cell-based, human; details: 5% FBS, 18 h, parstatin (1-41) 0.3 to 10 μM, other peptides 10 μM
Method: Primary human umbilical vein endothelial cells (HUVEC cells) were obtained from freshly delivered umbilical cords from caesarean births and were grown in M199 medium with 20% fetal bovine serum (FBS) supplemented with endothelial cell growth supplement and heparin. One of the most specific tests for angiogenesis is the measurement of the ability of endothelial cells to form capillary-like structures (i.e., tube formation). Tube formation is a multi-step process involving cell adhesion, migration and differentiation. Tube formation can be enhanced by use of Matrigel or fibrin clots to coat plastic culture dishes and it is an accepted model of angiogenesis.
Matrigel™ (Becton Dickinson Labware, N.J., USA) is a mixture of basement membrane components extracted from the Englebreth-Holm-Swarm tumor. […] Matrigel™ (250 μl) was added to each well of a 24-well plate and allowed to polymerize. A suspension of 40,000 HUVEC cells in M199 medium containing 5% FBS was added into each well coated with Matrigel™.
Cells were treated with increasing concentrations of human parstatin (1-41), scrambled parstatin, or parstatin (24-41) fragment. After 18 hours of incubation, the medium was removed, and the cells were fixed and stained, and tube-like structures were quantitated.

HUVEC cells [4] = assay: Fibrin gel in vitro angiogenesis assay; type: cell-based, human; details: VEGF/bFGF-induced, 24 h; other peptides 10 μM
Method: The ability of endothelial cells to form three-dimensional structures was analyzed using a Fibrin gel in vitro angiogenesis assay kit (Chemicon International Inc. Temecula, Calif.). Fibrin gels were formed in 48-well plates by mixing fibrinogen and thrombin solutions, according to manufacturer instructions. Cells (40,000 cells/well) were then added and cultured in medium containing 2% FBS for 18 h. After the addition of a second layer of fibrin gel, endothelial cells sandwiched within fibrin gels were cultured in serum-free medium containing 0.5% bovine serum albumin (BSA) and the combination of VEGF/bFGF for 24 h. Where indicated, parstatin (1-41) or other indicated peptides were added. Capillary-like network was photographed and measured.

caspase-3 in HUVEC cells = assay: caspase-3 activity colorimetric assay; type: cell-based, human; details: 0.5% BSA, 24 h; mouse and scrambled 10 μM
Method: To further support the involvement of caspases in parstatin (1-41) pro-apoptotic effect, its effect on caspase-3 activation was examined using a commercially available kit (Promega, Madison, Wis.). The colorimetric substrate, Ac-DEVD-p-nitroanilide, is cleaved by caspase-3 to release yellow p-nitroanilide, was measured by absorbance at 405 nm to detect caspase activation.
HUVEC cells were grown in 60 mm tissue culture plates until approximately 80% confluency. Cells were treated in absence or in presence of 0.5% BSA or bFGF for 24 h in serum-free medium. Suspended and adherent cells were collected and lysed. Caspase-3 activity was measured by absorbance at 405 nm.

HUVEC cells [5] = assay: MTT cell proliferation assay; type: cell-based, human
Method: Cell proliferation was evaluated using a 3-(4,5-[…])-2,5-diphenyltetrazolium bromide (MTT, Sigma-Aldrich, St. Louis, Mo.) assay. Endothelial cells (10,000/well) were seeded in 24-well tissue culture plates and incubated with growth medium for 24 h. Cells were then treated with the vehicle or the indicated peptides in medium containing 5% FBS for 1 to 3 days. After 24, 48, or 72 hours, MTT solution (5 mg/ml) was added to each well and incubated for 3 h at 37° C. The blue formazan crystals were solubilized by addition of DMSO and absorbance at 450 nm was recorded using a 96-well plate reader.

[6] = system: Erk1/2 (p42/44 MAPK) in HUVEC cells; assay: Erk1/2 phosphorylation immunoblot (MAP kinase pathway); type: cell-based, human; details: pretreatment 1 h, 10 μM; stimulated by FBS, bFGF or VEGF
Method: The MAPK (Erk1/2, p42/44) cascade mediates mitogenesis. […] HUVEC cells were cultured in 35 mm tissue culture dishes. After reaching 80% confluency, cells were growth factor-starved and subsequently stimulated for 10 min with vehicle or indicated agents. In combination experiments, cells were pretreated with parstatin or other peptides for 10 to 60 min.
Attached cells were lysed with Laenmli sample buffer, resolved in 10% SDS-PAGE, and transferred to nitrocellulose membranes. Membranes were incubated with primary antibodies against phospho p42/44 mitogen-activated protein kinases (p-Erk1/2, New England Biolabs, UK) and p42/44 Erk1/2 (t-Erk1/2, New England Biolabs, UK). Membranes were then probed with secondary antibodies horseradish peroxidase-conjugated, and proteins were visualized by chemiluminescent detection.

HUVEC cells [7] = assay: [3H]-thymidine incorporation (DNA synthesis); type: cell-based, human; details: serum, bFGF or VEGF; comparison peptides 10 μM
Method: The ability of parstatin (1-41) to inhibit DNA synthesis of endothelial cells was assessed in thymidine incorporation assays. HUVEC cells were grown until 60-80% confluent in 24-well plates. Cells were treated with indicated peptides in serum-free medium containing either 0.5% BSA, or VEGF, or bFGF, or medium containing 5% FBS, or epidermal growth factor (EGF), or heparin-binging EGF (HB-EGF) for 18 hours. All cells were pulsed with 0.5 μCi/ml [3H]-thymidine (ICN Biomedicals Inc., Irvine Calif.) for additional 6 h. Radioactivity incorporated into DNA was determined in liquid scintillation counter.

HUVEC cells [8] = assay: modified Boyden's chamber cell migration assay; type: cell-based, human; details: toward 5% FBS, 6 h; other peptides 10 μM
Method: HUVEC cell migration was assessed using a modified Boyden's chamber assay, i.e., in Transwell cell culture chambers (Corning Life Sciences, Acton, Mass.). Briefly, polycarbonate filters with 8 μm pores were used to separate the upper and the lower chambers. Cells were added to the upper compartment at a density of 10,000 cells/100 μl in serum-free medium containing 0.5% BSA and incubated for 6 h. Directional migration (chemotaxis) in the lower chamber was induced by addition of medium containing 5% FBS to the lower chamber. Where indicated parstatin or other peptides were added to lower chamber.
Cells on the filters were fixed and stained. The non-migrated cells (cells in upper surface) were removed by wiping with cotton swabs. The cells on the lower surface were counted manually under microscope in six predetermined fields. Parstatin (1-41) attenuated chemotactic cell migration through microporous membrane in response to serum (FIG. 3C). When human parstatin was combined with 5% FBS, the number of migrated cells was reduced in concentration-dependent manner.

[9] = system: chick chorioallontoic membrane (CAM); type: in vivo; details: 10 nmoles, 48 h
Method: The in vivo chick chorioallontoic membrane (CAM) angiogenesis model was used to evaluate the effect of parstatin (1-41) in angiogenesis. On incubation day 9 of fertilized chicken eggs, an O-ring (1 cm^2) was placed on the surface of the CAM and the vehicle or the indicated substances were placed inside this restricted area. After 48 h, CAMs were fixed in saline-buffered formalin, photographed, and analyzed using the Scion Image software (Scion Image Release Beta 4.0.2 software; Scion Corporation, Frederick, Md.). Image analysis was performed on at least 18 eggs for each group. Vessel number and length were evaluated by pixel counting, and the results expressed as mean percentage of control ±SE. Statistical analyses were performed using a Student's t test.

[10] = system: corneas of Sprague-Dawley rats; assay: corneal histopathology after chemical burn (vessels, neutrophils); type: in vivo, rat; details: 2×100 μg, day 7
Method: After the above-described processes were performed, the rats were sacrificed (7 days) and the eyes were excised. All eyes were sectioned (4 μm) and stained with hematoxylin-eosin. Two independent pathologists, in a blinded manner, evaluated the microvessel density and the inflammatory cell infiltration in each slide. Total corneal vascular vessels and neutrophils were counted at 200× in seven representative stained tissue sections for each eye, covering all cornea area and having a similar distance from the central burn.

Substance | cell fluorescence in microscope images (HUVEC cells [1]) | fraction of FITC-positive cell population (HUVEC cells [2]) | tube formation on Matrigel (HUVEC cells [3]) | tube formation on Matrigel (HUVEC cells [3]; listed as mouse parstatin (1-41)) | capillary-like network (total capillary tube length) in fibrin gels (HUVEC cells [4]) | caspase-3 activity (caspase-3 in HUVEC cells) | IC50 (HUVEC cells [5]; stimulus not given, read-out: half-maximal concentration, inhibiting cell proliferation) [µM] | activation of Erk1/2 [6] | DNA synthesis in HUVEC cells (HUVEC cells [7]) | chemotactic cell migration (HUVEC cells [8]) | inhibition of the basal level of angiogenesis in CAMs [9] | HUVEC cell proliferation (HUVEC cells [5]; 10 μM) | mean number (density) of vascular vessels per section [10] | numbers of neutrophils [10] [cells/corneal section]
TRARRPESKATNATLDPRK-FITC (TRARRPESKATNATLDPRK(FITC); also: FITC linked to the C-terminal lysine; listed as Homo sapiens) [parstatin (24-41)-FITC, FITC conjugated to human parstatin (24-41) fragment] | no fluorescence was observed | minimal and comparable with that of control cells | – | – | – | – | – | – | – | – | – | – | – | –
MGPRRLLIVALGLSLCGPLLSSRVPMSQPESERTDATVNPR [mouse parstatin, 1-41-amino acids cleaved N-terminal fragment of mouse PAR-1] | – | – | effective in inhibiting tube formation | less pronounced, but still significant, inhibitory effect | less pronounced, but still significant, inhibitory effect | moderate increase | 20 | less pronounced effect | significant, but less effective inhibitory effect | significant inhibitory effect, but to a lower extent | – | – | – | –
LRTNASLLVPFLTARAKSSGTREAADPPRLMCLRPLARRCG (Scrambled synthetic peptide) [scrambled parstatin, reference compound] | – | – | did not affect | – | did not affect | without effect | – | did not alter | did not cause any significant effect | without effect | did not cause any significant effect | without effect | 77.17±3.11 | 39±2.54
